# In patent US9878986B2, “Compounds for selective histone deacetylase inhibitors, and pharmaceutical composition comprising the same” (CHONG KUN DANG PHARMACEUTICAL CORP., priority 2013, dated 2018):
# Columns and labels:
# HDAC 5 = molecular target: T1, HDAC 5 (Homo sapiens, UniProt Q9UQL6); test: HDAC panel by Reaction Biology Corp., HDAC 5; format: biochemical; conditions: read-out: HDAC inhibitory activities, HDAC 5
# T1 construct: Reaction Biology Corp
# Source text: (§1) The inhibitory activities of Compounds 255 and 374 on all HDACs were confirmed (by Reaction Biology Corp.).
# RPMI 8226 cells = test: Combination index for combination treatment with Velcade (MTT cell viability); format: cell-based
# Description: RPMI 8226 cells were seeded in 96-well U-bottom plate at 3×10^5 cells/ml in 180 μl per well, and 20 μl of test material was added to the plate. The cells were incubated in a 37° C. humidified 5% CO2 incubator for 48 hours, and each 20 μl of 5 mg/ml 2-(4,5-dimethylthiazol-2-yl)-2,5-diphenyltetrazolium bromide (MTT) solution dissolved in PBS was added and incubated again for 4 hours. After the formation of formazan, the medium was completely removed, 200 μl of DMSO was added, and then the absorbance was measured using a microplate reader at 570 nm.
# For the quantitative analysis of drug interaction between the novel urea compounds of the present invention and Velcade (BOZ) well known as a therapeutic agent for multiple myeloma, the combination index (CI) of cell fractions on cytotoxicity caused by the drugs was calculated based on the dose-response curve of single and combination treatments. For the analysis of the interaction between two drugs, the CI was measured using Compusyn software (Combosyn Inc.) according to the method of Chou and Talalay (CompuSyn by Ting-Chao Chou and Nick Martin, 2005). The CI is the dose ratio of two anticancer agents treated with the dose of two anticancers at the point representing the equivalent cytotoxic effects. CI<1, CI=1, and CI>1 are interpreted as synergism, additivity, and antagonism, respectively.
# HDAC 11 = molecular target: T2, HDAC 11 (Homo sapiens, UniProt Q96DB2); test: HDAC panel by Reaction Biology Corp., HDAC 11; format: biochemical; conditions: read-out: HDAC inhibitory activities, HDAC 11
# T2 construct: Reaction Biology Corp
# T2 sequence (Q96DB2 1-347): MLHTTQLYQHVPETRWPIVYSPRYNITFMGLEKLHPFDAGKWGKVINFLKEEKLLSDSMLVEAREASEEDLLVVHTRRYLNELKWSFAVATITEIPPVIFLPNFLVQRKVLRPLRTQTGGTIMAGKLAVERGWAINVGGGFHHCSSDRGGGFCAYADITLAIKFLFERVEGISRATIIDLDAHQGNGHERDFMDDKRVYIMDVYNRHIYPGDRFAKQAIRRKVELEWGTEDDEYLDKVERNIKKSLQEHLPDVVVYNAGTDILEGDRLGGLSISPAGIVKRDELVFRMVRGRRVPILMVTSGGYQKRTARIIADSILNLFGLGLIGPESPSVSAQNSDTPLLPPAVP
# Source text: as §1
# [1] = test system: tubulin acetylation (HDAC6) in RPMI8226 cells; test: Acetylation of Tubulin in cells by Western blot; format: cell-based; conditions: for concentration at which tubulin acetylation (HDAC6) was expressed: 24 hours
# Description: To determine the selectivity for HDAC6 in cells, the acetylation levels of Tubulin, Histone H3 and Histone H4 depending on the concentration of compounds were measured by Western blot.
# RPMI8226 (1.0×10^6 cells/well) cells were seeded on six-well plates and treated with drugs (Compounds 255 and 374) at each concentration. After 24 hours, the proteins were extracted with RIPA buffer and quantified by the Bradford method. 25 μg of protein was lysed in sample buffer, electrophoresed on a 4-12% gradient gel, and then transferred to nitrocellulose membranes for 50 minutes. Then transferred protein was blocked with 5% skim milk for 1 hour. Anti-acetyl H3 (1:2,000), anti-acetyl H4 (1:5,000), anti-acetyl tubulin (1:5,000), and anti-β-actin antibody (1:10,000) were added into 5% skim milk, and the membranes were immersed in the skim milk, reacted at 4° C. for 16 hours, and then washed three times for 10 minutes each with 1×TBS-T. Then, IgG-HRP antibody (1:5,000) was added into 5% skim milk, and then the membranes were immersed in the skim milk, reacted at room temperature for 40 minutes, and then washed three times for […] each with 1×TBS-T. Then, the acetylation levels were determined with a LAS 3000 using ECL solution.
# The acetylation of tubulin, histone H3 and Histone H4 on RPMI8226 cells (1.0×10^6 cells/well) derived from myeloma was determined in the same manner as the cell determination in Example 1.
# colitis models = test: Colitis models (dextran sulfate sodium); format: in vivo, C57BL/6J mice; conditions: intraperitoneally twice a day after 8 days from supply of DSS; disease-induced models lost to 17.5 to 18 g
# Description: 3.0% dextran sulfate sodium (DSS: MP biomedicals) was dissolved in deionized water and supplied to 9-week-old C57BL/6J mice for 5 to 7 days and then water was normally supplied to the mice to induce colitis in animal models. The experimental animals were classified into a solvent control group and each group treated with Compound 254 and Compound 255 as test materials based on the body weight of the experimental animals. The test material was intraperitoneally injected twice a day after 8 days from the supply of DSS. The evaluation of the efficacy in colitis models was made by determining the degree to which the weight, lost due to the disease, was recovered to normal level, and the results are shown in FIG. 6.
# [2] = Compound 255 0.25 μM + BOZ (Velcade) 2.5 nM
# [3] = Compound 255 0.25 μM + BOZ (Velcade) 5.0 nM
# [4] = Compound 255 0.25 μM + BOZ (Velcade) 10.0 nM
# [5] = Compound 255 0.5 μM + BOZ (Velcade) 2.5 nM
# [6] = Compound 255 0.5 μM + BOZ (Velcade) 5.0 nM
# [7] = Compound 255 0.5 μM + BOZ (Velcade) 10.0 nM
# [8] = Compound 255 1.0 μM + BOZ (Velcade) 2.5 nM
# [9] = Compound 255 1.0 μM + BOZ (Velcade) 5.0 nM
# [10] = Compound 255 1.0 μM + BOZ (Velcade) 10.0 nM
# T1 sequence (Q9UQL6 whole entry): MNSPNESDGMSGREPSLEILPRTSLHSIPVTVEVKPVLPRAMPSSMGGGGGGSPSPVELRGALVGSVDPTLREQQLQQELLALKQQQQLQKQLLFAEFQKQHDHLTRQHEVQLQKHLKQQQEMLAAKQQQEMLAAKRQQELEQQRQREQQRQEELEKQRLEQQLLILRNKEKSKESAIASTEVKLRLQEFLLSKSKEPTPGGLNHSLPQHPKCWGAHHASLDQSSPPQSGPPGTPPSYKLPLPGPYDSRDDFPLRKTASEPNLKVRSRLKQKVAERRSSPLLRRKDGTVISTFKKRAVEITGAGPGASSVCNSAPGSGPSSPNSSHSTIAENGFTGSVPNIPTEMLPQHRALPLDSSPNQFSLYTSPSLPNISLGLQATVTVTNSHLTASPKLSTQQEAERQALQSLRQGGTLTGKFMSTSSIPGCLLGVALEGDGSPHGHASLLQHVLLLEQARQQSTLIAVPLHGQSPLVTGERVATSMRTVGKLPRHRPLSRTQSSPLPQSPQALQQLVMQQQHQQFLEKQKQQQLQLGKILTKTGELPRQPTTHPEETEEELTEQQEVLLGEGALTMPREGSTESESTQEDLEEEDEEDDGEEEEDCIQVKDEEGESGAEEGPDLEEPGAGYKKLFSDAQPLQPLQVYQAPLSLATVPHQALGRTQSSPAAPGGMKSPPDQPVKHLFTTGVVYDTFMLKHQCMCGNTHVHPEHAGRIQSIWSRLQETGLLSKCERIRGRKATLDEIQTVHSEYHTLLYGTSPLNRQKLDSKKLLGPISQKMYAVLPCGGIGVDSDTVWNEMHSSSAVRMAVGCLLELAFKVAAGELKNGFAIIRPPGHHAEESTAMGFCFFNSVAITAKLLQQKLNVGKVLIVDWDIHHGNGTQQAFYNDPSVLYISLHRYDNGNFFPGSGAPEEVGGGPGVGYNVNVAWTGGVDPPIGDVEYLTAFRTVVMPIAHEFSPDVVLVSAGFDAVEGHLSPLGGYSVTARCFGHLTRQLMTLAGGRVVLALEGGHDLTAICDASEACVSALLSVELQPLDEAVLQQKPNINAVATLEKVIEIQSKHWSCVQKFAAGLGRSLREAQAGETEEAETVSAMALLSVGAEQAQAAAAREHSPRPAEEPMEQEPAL
smiles,measurement,setting,value
"O=C(NO)c1ccc(CN(C(=O)N2CCOCC2)c2cccc(Br)c2)cc1 [Compound 255, N-(3-bromophenyl)-N-(4-(hydroxycarbamoyl)benzyl)morpholine-4-carboxamide]",IC50,HDAC 5,8.27 µM
same,CI (1),RPMI 8226 cells; [2],1.182
same,CI (2),RPMI 8226 cells; [2],1.034
same,CI (3),RPMI 8226 cells; [2],1.068
same,CI (1),RPMI 8226 cells; [3],0.560
same,CI (2),RPMI 8226 cells; [3],0.710
same,CI (3),RPMI 8226 cells; [3],0.737
same,CI (1),RPMI 8226 cells; [4],0.482
same,CI (2),RPMI 8226 cells; [4],0.309
same,CI (3),RPMI 8226 cells; [4],0.417
same,CI (1),RPMI 8226 cells; [5],1.120
same,CI (2),RPMI 8226 cells; [5],1.115
same,CI (3),RPMI 8226 cells; [5],1.087
same,CI (1),RPMI 8226 cells; [6],0.751
same,CI (2),RPMI 8226 cells; [6],0.789
same,CI (3),RPMI 8226 cells; [6],0.727
same,CI (1),RPMI 8226 cells; [7],0.491
same,CI (2),RPMI 8226 cells; [7],0.529
same,CI (3),RPMI 8226 cells; [7],0.428
same,CI (1),RPMI 8226 cells; [8],0.940
same,CI (2),RPMI 8226 cells; [8],1.146
same,CI (3),RPMI 8226 cells; [8],0.998
same,CI (1),RPMI 8226 cells; [9],0.469
same,CI (2),RPMI 8226 cells; [9],0.679
same,CI (3),RPMI 8226 cells; [9],0.475
same,CI (1),RPMI 8226 cells; [10],0.416
same,CI (2),RPMI 8226 cells; [10],0.518
same,CI (3),RPMI 8226 cells; [10],0.417
same,combination effect with Velcade (BOZ),RPMI 8226 cells; judged by the combination index,combination effect is excellent
same,IC50,HDAC 11,0.78 µM
same,cell selectivity (tubulin versus histone acetylation),[1],excellent cell selectivity
same,concentration at which tubulin acetylation (HDAC6) was expressed,[1],about 10 nM
same,weight recovered to,colitis models,19 to 19.5 g
"O=C(NO)c1ccc(CN(C(=O)N2CCOCC2)c2cccc(C(F)(F)F)c2)cc1 [Compound 374, N-(4-(hydroxycarbamoyl)benzyl)-N-(3-(trifluoromethyl)phenyl)morpholine-4-carboxamide]",IC50,HDAC 11,8.42 µM
same,cell selectivity (tubulin versus histone acetylation),[1],excellent cell selectivity
same,concentration at which tubulin acetylation (HDAC6) was expressed,[1],about 10 nM
